test: pH of solute solutions of equivalent molarity; format: physicochemical; details: solution in 1:1 volumetric ratio acetonitrile to de-ionized water; 1.32 × 10^−6 mol, concentration as in Table 3

pH | SMILES
7.6 | OCCCCCCCCCCO [Decanediol, 1,10-Decanediol]
2.8 | O=C(O)c1ccccc1O [Salicylic acid]

The next lines start with the molecule.

SMILES | pH
O=C(O)c1ccccc1 [Benzoic acid] | 3.6
Oc1ccccc1O [Catechol] | 4.5
N#CC(=Cc1ccc(O)cc1)C(=O)O [αCHCA, α-cyano-4-hydroxycinnamic acid] | 2.75

test: Solubility of matrix in acetonitrile/de-ionized water matrix solvent; format: physicochemical; details: acetonitrile/de-ionized water 1:1 (v/v), aqueous with cosolvent or surfactant or cyclodextrin, thermodynamic from solid; 1:1 volumetric ratio acetonitrile to de-ionized water; read-out: Matrix concentration that displayed insolubility
Method: To further investigate the sample concentrating properties of CNT anchor spots, experiments were conducted using varying concentration of sample. Solutions were prepared. A solution of 1:1 volumetric ratio of acetonitrile to de-ionized water was prepared as a matrix solvent. Dry crystalline matrix αCHCA was weighed out with a Sartorius Research (Goettingen, Germany) model R200D digital precision balance and combined in a 1.5 mL Eppendorf® Safe-Lock Microcentrifuge tube (Westbury, N.Y.) with sufficient quantity of solution to achieve a matrix concentration varied over three orders of magnitude from 0.006 mg/mL to 6 mg/mL. […] All matrix solutions were prepared freshly and independently of each other in order to reduce possibility of concentration error. The samples were prepared by manually depositing 0.2 μL of solution from pipette to new carbon nanotube enhanced substrates (same parameters as previous experiment). The droplets were allowed to dry in ambient conditions (room temperature 23° C.), and time-lapse images were captured using the optical microscope described previously.

SMILES | solubility [µg/mL]
N#CC(=Cc1ccc(O)cc1)C(=O)O [αCHCA, α-cyano-4-hydroxycinnamic acid] | > 6000
